Measurements taken from patent publication EP2201946A1, “PAI-1 PRODUCTION INHIBITOR” (Institute of Medicinal Molecular Design, Inc., priority 2007, dated 2009).

Columns and labels:
[1] = tested on: Chronic Obstructive Pulmonary Disease (COPD) model; assay: Collagen accumulation in alveoli of guinea pigs exposed to cigarette smoke (Masson-trichrome, image analysis); type: in vivo; conditions: smoke of 40 cigarettes a day for 25 days, oral once a day for 25 days, compound (1) 30 or 100 mg/kg/day, prednisolone 10 mg/kg/day (Fig. 2)
Protocol: Using the smoking exposure system (INH06-CIG01A, MIPS Inc.), 6-week old guinea pigs (Std: male Hartley, Japan SLC, Inc.) were exposed to smoke of 40 cigarettes (Peace (Registered Trademark), Japan Tobacco, Inc.) a day (20 cigarettes twice) for 25 continuous days (Chronic Obstructive Pulmonary Disease (COPD) model group: Control group: n=10). To theseguinea pigs, from the day of exposure to the smoke of tobacco, the compound (1) (30 mg/kg/day or 100 mg/kg/day) or prednisolone (10 mg/kg/day) was continuously administered orally once a day for 25 days (Compound (1) 30 mg administered group: n=5, Compound (1) 100 mg administered group: n=5, Prednisolone administered group: n=5). Furthermore, as a normal group, guinea pigs (n=5) exposed to air without the administration of the compound (1) and prednisolone were prepared. On the following day of the last exposure, after preparing paraffin sections in the lungs of each guinea pig, collagen was stained by the Masson-trichrome method, and the accumulations of collagen in the alveoli were measured by the area rate with the image analysis. […] Next, the above paraffin section was stained by the immunostaining method using an anti PAI-1 antibody (PAI-1 H-135; Santa Cruz; 250-fold dilution), and the ratio of PAI-1 expression cells to the total cell numbers infiltrated in the lung was measured. […]

[2] = tested on: TGF-β induced PAI-1 production; assay: TGF-β induced PAI-1 production in HepG2 cells (Human Serpin E1/PAI-1 DuoSet); type: cell-based; conditions: Compound Concentration : 1μM, TGF-β1 1ng/mL, 24 hours
Protocol: HepG2 cells were seeded on a 96-well culture plate by 2x10^4 cells/well, and were incubated for 24 hours in the MEM medium containing 1% NEAA (Non-Essential Amino Acids), 1mM pyruvate, and 10% FBS. Then, the medium was changed to a MEM medium containing 1% NEAA, 1mM pyruvate and 1% FBS, and the cells were further incubated for 24 hours. Subsequently, after the medium was changed to a MEM medium containing 1% NEAA, 1mM pyruvate and 1% FBS, and then the cells were treated with the test substances (final concentration: 1 µM or 0.1 µM) for one hour, TGF-β1 (final concentration.1ng/mL) was added and the cells were further incubated for 24 hours. As controls, a culture solution added TGF-β1 only and a culture solution cultured without neither the test substances nor TGF-β1 were prepared. After the incubation, the PAI-1 amount was measured using Human Serpin E1/PAI-1 DuoSet (R&D Systems). The PAI-1 amount when treated with TGF-β1 only being "100%", and the PAI-1 amount when treated without neither the test substances nor TGF-β1 being "0%", the PAI-1 inhibition ratios of each test substance were calculated. IC50 of the compound (2) was about 50 nM.

[3] = tested on: TGF-β induced PAI-1 production; assay: TGF-β induced PAI-1 production in HT1080 cells (Western blotting); type: cell-based; conditions: TGF-β1 10 ng/mL, 6-hours incubation
Protocol: After incubating HT1080 cells for 48 hours in the MEM medium containing 10%FBS (Fetal Bovine Serum), the medium was changed to a MEM medium containing 1% FBS, and TGF-β1 (final concentration: 10 ng/mL) only, or TGF-β1 (final concentration: 10 ng/mL) and the test substances were added and incubated. As a control, a culture solution without neither TGF-β1 nor the test substances was prepared. After 6-hours incubation, the culture fluids were collected, and the PAI-1 amounts in the culture fluids were measured by the Western blotting. The PAI-1 amount when TGF-β1 only was added being "100%," and the PAI-1 amount in the control being "0%," PAI-1 I amounts at each concentration of the test substances (PAI-1 inhibition ratios) were calculated, and the concentrations of the compounds, which inhibited PAI-1 production to 50% (IC50) in amount, were obtained.

SMILES | accumulation of collagen in the alveoli (area rate) [1] | Inhibition Ratio (%) [2] [%] | IC50 [3] [nM]
C[C@]12C=CC(=O)C=C1CC[C@@H]1[C@@H]2[C@@H](O)C[C@@]2(C)[C@H]1CC[C@]2(O)C(=O)CO [prednisolone] | not able to inhibit the accumulation of collagen | – | –
O=C(Nc1cc(C(F)(F)F)ccc1C(F)(F)F)c1cc(Br)ccc1O [(3)] | – | >90 | 83
